The text below walks through data of patent US20220133662A1, “ORAL DRUG, ADJUVANT CANCER THERAPY, AND PET THERAPEUTIC DIET” (priority 2019, published 2022).

Structures are written as SMILES.

In one data set the test system is Hela cells. The data set is described as follows: Survival rate of Hela cells (MTT), ketone donors alone or with cisplatin. The data set is classed as cell-based. The conditions noted are these: 1 mM ketone donor with 0.3-3 μM of cisplatin, versus untreated group.
The conditions of data set [1]: cited from earlier work.
The conditions of data set [2]: in vivo; cited from earlier work.
For the next data set, the system named is COS7 cells. The data set is described as follows: Survival rate of COS7 cells (MTT), ketone donors alone or with cisplatin. The data set is classed as cell-based. The conditions noted are these: 1 mM ketone donor added with cisplatin, versus untreated group.
Data set [3] is described as follows: Ketone body concentration in the blood after a single ingestion in yogurt. Type of data set: in vivo. The note with it: humans, 500 mg/kg of body weight in yogurt (200 g). The method, then:
PHB was extracted from OITC1261 by the method for purifying the powdered PHB shown in Example 2 (purity: 90%, weight-average molecular weight: 590,000). Ketone ester and PHB whose amounts were adjusted such that the intake thereof was 500 mg/kg of body weight were mixed uniformly in yogurt (200 g) and fed to humans. The ketone body concentration in the blood was measured using a ketone body value electrode (FS Precision ketone measurement electrode) of Precision Exceed (Abbott) every other hour. After ketone bodies were confirmed to be stable, plain yogurt was ingested.
The horizontal axis of the graph in FIG. 8 represents time. The vertical axis represents the ketone body concentration in the blood. Squares represent changes in the ketone body concentration in the blood over time in a group that ingested plain yogurt mixed with ketone ester. […]
The powdered PHB and ketone bodies whose amounts were adjusted such that the intake thereof was 500 mg, 300 mg, 100 mg, or 0 mg/kg of body weight were mixed uniformly in yogurt (200 g) and fed to humans. […] The ketone body concentration in the blood over time was measured using a ketone body value electrode (FS Precision ketone measurement electrode) of Precision Exceed (Abbott) every other hour. […]

Protocol for COS7 cells: (§1) COS7 cells, that are a renal cytoblastoma, were used. Subconfluent cells were spread on 24-well plates at a density of 40,000 cells/cm^2 and cultured in Dulbecco's Modified Eagle Medium (D-MEM) containing 10% of inactivated fetal bovine serum for one hour. Various concentrations of ketone bodies (HB) and ketone ester (KE) were added to the culture medium of COS7 cells and cultured for 24 hours. After 24 hours of culturing, the culture medium was removed, and COS7 cells were cultured for two hours in PBS with 1 mg/ml of a chromogenic reagent 3-(4,5-dimethylthiazol-2-yl)-2,5-diphenyl tetrazolium bromide (MTT, Wako Pure Chemical Corporation).
(§2) After the culturing, cell lysis solution (50% formamide, 20% sodium dodecyl sulfate) was added and left for 24 hours. Thereafter, the absorbance at 540 nm was measured using an absorbance measurement device (Biorad microplate reader), and the measured absorbance was used to calculate survival rates of COS7 cells.
Protocol for Hela cells: as §1, §2

With `C[C@@H](O)CC(=O)O` [ketone bodies, (R)-3-β-hydroxybutyric acid], the “adjuvant effect on toxicity caused by cisplatin” value is listed as “significantly promoted the toxic effects due to cisplatin” with Hela cells and “significantly promoted the toxic effect caused by cisplatin” in the data set on COS7 cells. Further, in data set [1] (ketone bodies ingested), the “time in which ketone body concentration in the blood increases after ingestion” value is reported as “within a few minutes”. The “share of ketone bodies transferred to the brain” value in data set [2] is 20-30%.

For `C[C@@H](O)CCOC(=O)C[C@@H](C)O` [ketone ester, 3-hydroxybutyl-3-hydroxybutyric acid], the “time after ingestion at which ketone body concentration in the blood returns to the original level” value in data set [3] is “about five”. The “increase of the ketone body concentration in the blood” value in data set [1] (ketone ester ingested) is recorded as “several mM in a few minutes”.
